The target in one series is CaM kinase II (Homo sapiens, UniProt Q13557+Q13555+Q13554+Q9UQM7). Kind of series: Inhibitory activity against Calcium/calmodulin-dependent protein kinase type II. Type of series: protein assay.
In series [1] the target is T1, Cyclin-dependent kinase 4/cyclin D1 (Homo sapiens, UniProt P11802). The experiment in a line: Inhibitory activity against Cyclin D1-cyclin-dependent kinase 4 in enzymatic assay by measuring phosphorylation of RbING. Type of series: protein-complex assay.
Series [2] addresses cAMP-dependent protein kinase (PKA) (Homo sapiens, UniProt P22694+P17612+P22612). Kind of series: Inhibitory activity against Protein kinase A (Histone). The class given is protein assay.
Series [3] concerns the target Cyclin-dependent kinase 2/cyclin E (Homo sapiens, UniProt P24941). The experiment in a line: Inhibitory activity against Cyclin E-cyclin-dependent kinase 2 in enzymatic assay by measuring phosphorylation of RbING. Type of series: protein-complex assay.
Series [4] addresses Cyclin-dependent kinase 4 (Homo sapiens) (UniProt P11802). The experiment in a line: Inhibition of Rb phosphorylation at the CDK4 specific Ser780 residue (3 fold increase over control) after 24 hr incubation in HCT116 cells. The class given is functional, cell-based. As to conditions: HCT-116, concentration not given here.
In series [5] the test system is HCT-116. The experiment in a line: In vitro antiproliferative activity against human carcinoma cell line HCT116 (colon). The class given is functional, cell-based.
Series [6] concerns the target Cyclin-dependent kinase 4 (Homo sapiens) (UniProt P11802). The experiment in a line: Inhibition of Rb phosphorylation at the CDK4 specific Ser780 residue (1 fold increase over control) after 24 hr incubation in HCT116 cells. Type of series: functional, cell-based. The conditions noted are these: HCT-116, concentration not given here.
Series [7] addresses T1, Cyclin-dependent kinase 4/cyclin D1. Kind of series: Inhibitory activity against Cyclin D1-cyclin-dependent kinase 4 in enzymatic assay by measuring phosphorylation of Rb21. The class given is protein-complex assay.
Series [8] concerns HCT-116. The experiment in a line: Flow cytometry of HCT116 cells, G1 arrest (2.6 fold increase over control) after 24 hr r. Type of series: functional, Homo sapiens.
The next series deals with NCI-H460. The experiment in a line: In vitro antiproliferative activity against human carcinoma cell line H460 (lung). Type of series: functional, cell-based.
The subject of series [9] is HCT-116. Kind of series: GI arrest (1 fold increase over control) in HCT116 cells was determined by flow cytometry after 24 hr incubation. Type of series: functional, Homo sapiens. (In general: A flow cytometer gives signals particle by particle.)
The subject of series [10] is HCT-116. Kind of series: GI arrest (3 fold increase over control) in HCT116 cells was determined by flow cytometry after 24 hr incubation. The class given is functional, Homo sapiens.
A short description of series [11]: Aqueous solubility (in situ) in D5W after 1 week was determined. The conditions noted are these: for solubility at 168 h: D5W. The class given is physicochemical.
Series [12] deals with Cyclin-dependent kinase 4 (Homo sapiens) (UniProt P11802). Kind of series: Inhibition of Cyclin-dependent kinase 4 specific Ser780 Rb phosphorylation, 3 fold increase over 24 hr incubation in HCT116 cells. Type of series: functional, cell-based. The conditions noted are these: HCT-116; concentration not given here.
Series [13] relates to HCT-116. Kind of series: (§1) Flow cytometry of HCT116 cells, G1 arrest (3 fold increase over control) after 24 hr r. The class given is functional.
The test system of series [14] is HCT-116. The description is as §1. Type of series: functional, Homo sapiens.
In series [15] the test system is HCT-116. The experiment in a line: Flow cytometry of HCT116 cells, G1 arrest (1 fold increase over control) after 24 hr r. The class given is functional, Homo sapiens.
For series [16], the target named is Cyclin-dependent kinase 2/cyclin E1 (Homo sapiens, UniProt P24941). The experiment in a line: Inhibition of RbING phosphorylation by Cyclin E1-cyclin-dependent kinase 2. Type of series: protein-complex assay.
Series [17] deals with HCT-116. The experiment in a line: Flow cytometry of HCT116 cells, G1 arrest ( fold increase over control) after 24 hr r. The class given is functional, Homo sapiens.
Series [18] deals with HCT-116. Kind of series: Flow cytometry of HCT116 cells, G1 arrest (fold increase over control) after 24 hr r incubation. The class given is functional, Homo sapiens.

Structures are written as SMILES. In brackets after ≈: the same amount, converted by molar mass.

From ChEMBL document CHEMBL1136094, “Novel, potent and selective cyclin D1/CDK4 inhibitors: indolo[6,7-a]pyrrolo[3,4-c]carbazoles” (Bioorg Med Chem Lett, 2003) come the findings set out here.

T1 sequence (P11802 whole entry): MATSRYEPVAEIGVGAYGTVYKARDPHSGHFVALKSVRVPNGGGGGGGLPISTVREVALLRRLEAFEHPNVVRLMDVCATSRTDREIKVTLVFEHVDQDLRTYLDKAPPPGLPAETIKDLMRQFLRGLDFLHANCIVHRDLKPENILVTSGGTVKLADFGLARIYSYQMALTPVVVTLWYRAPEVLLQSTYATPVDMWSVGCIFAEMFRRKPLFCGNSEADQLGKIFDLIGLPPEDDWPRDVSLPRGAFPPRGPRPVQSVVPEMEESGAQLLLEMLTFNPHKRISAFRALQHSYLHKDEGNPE
T1 sequence (P24385 whole entry, further chain): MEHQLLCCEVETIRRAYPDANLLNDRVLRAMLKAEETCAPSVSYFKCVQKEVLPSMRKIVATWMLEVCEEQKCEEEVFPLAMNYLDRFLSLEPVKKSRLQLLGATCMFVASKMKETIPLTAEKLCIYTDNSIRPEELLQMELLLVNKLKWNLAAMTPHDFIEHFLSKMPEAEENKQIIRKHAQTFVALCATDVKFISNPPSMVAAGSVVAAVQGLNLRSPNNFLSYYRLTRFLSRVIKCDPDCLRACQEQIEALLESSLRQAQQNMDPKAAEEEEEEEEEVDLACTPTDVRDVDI
Sequence of Cyclin-dependent kinase 4 (Homo sapiens) (P11802 whole entry): as the sequence (P11802 whole entry) above

Regarding `COc1ccc2c3c4c(c5c(ccc6ccn(C)c65)c3n(CCCN3CCC(C(N)=O)CC3)c2c1)C(=O)NC4=O`, the IC50 at CaM kinase II worked out at 3050 nM; in series [1], 77 nM; in [2], 3380 nM; in series [3] it was 1000 nM; with HCT-116 [5], 1960 nM; in series [7] it was 13 nM. Half-maximal inhibition with NCI-H460 (IC50) was put at 2440 nM. In addition, the results for the inhibition in [4] and in series [6] were 67% and 58%, respectively. The Fold increase was determined as 2.5 with HCT-116 [8] and 1.9 with HCT-116 [9].

For the compound `Cn1ccc2ccc3c4[nH]c5c(CCN6CCOCC6)cccc5c4c4c(c3c21)C(=O)NC4=O`, the IC50 on CaM kinase II is 177 nM; in series [1], 54 nM; in [2], above 20000 nM; in series [3], 1280 nM; in the series on HCT-116 [5] it was 1630 nM; in [7], 15 nM. This compound had an IC50 in the series on NCI-H460 of 1910 nM. In addition, the Fold increase in the series with HCT-116 [10] is recorded as 2.2; in the series with HCT-116 [9], 1.5. In [11], the solubility at 168 h turned out to be 8700 µg/mL (≈ 19.2 mM).

As for `COc1ccc2c3c4c(c5c(ccc6ccn(C)c65)c3n(CCN[C@H]3CC[C@H](O)CC3)c2c1)C(=O)NC4=O`, the 50% inhibitory concentration (IC50) came out at 1170 nM on CaM kinase II; 63 nM in series [1]; 18000 nM in [2]; 902 nM in series [3]; 890 nM in the series with HCT-116 [5]; 23 nM in [7]. This compound registered an IC50 with NCI-H460 of 1050 nM. For the same compound, the inhibition came out at 95% in series [12] and 67% in series [6]. Further, the Fold increase in the series on HCT-116 [10] and with HCT-116 [13] was 2 in each case. This compound returned a solubility at 168 h in series [11] of 7800 µg/mL (≈ 15.3 mM). The same compound came in with a Solubility in [11] (buffer, 168 h) of 7800 µg/mL (≈ 15.3 mM).

With `Cn1ccc2ccc3c4[nH]c5c(CCO)cccc5c4c4c(c3c21)C(=O)NC4=O`, the IC50 was 82 nM in series [1]; above 2000 nM in series [2]; 210 nM in [3]; 1130 nM in the series with HCT-116 [5]; 75 nM in series [7]. Also, the inhibition in series [4] was 92%; in series [6], 60%. Besides, the figures for the Fold increase in the series on HCT-116 [14] and in the series on HCT-116 [15] were 2.7 and 1.4, respectively.

In the case of `COc1cc2c3[nH]c4ccccc4c3c3c(c2c2c1ccn2C)C(=O)NC3=O`, the IC50 in [1] worked out at 54 nM; in series [2], 13200 nM; in series [16], 35 nM; in the series on HCT-116 [5], 1130 nM; in the series with NCI-H460, 710 nM. Besides, the inhibition was determined as 86% in series [4] and 71% in series [6]. Moreover, the Fold increase was found to be 2.2 in the series with HCT-116 [10] and 1.2 in the series with HCT-116 [9].

Consider `COc1ccc2c3c4c(c5c(ccc6ccn(C)c65)c3n(CCNCCO)c2c1)C(=O)NC4=O`, for which the IC50 stood at 527 nM on CaM kinase II; 35 nM in series [1]; 3740 nM in [2]; 89 nM in series [3]; 1470 nM with HCT-116 [5]; 21 nM in [7]. The same compound displayed a 50% inhibitory concentration (IC50) in the series with NCI-H460 of 1310 nM. Besides, the inhibition in series [4] was 92%; in [6], 71%. The same compound displayed a solubility at 168 h in [11] of 6000 µg/mL (≈ 13.1 mM). The same compound yielded a Fold increase in the series with HCT-116 [9] of 3.1.

`Cn1ccc2ccc3c4[nH]c5c(CCN[C@H]6CC[C@H](O)CC6)cccc5c4c4c(c3c21)C(=O)NC4=O`: the IC50 amounted to 49 nM at CaM kinase II; 53 nM in [1]; 9810 nM in [2]; 450 nM in series [3]; 1230 nM in the series with HCT-116 [5]; 5 nM in [7]. In addition, in the series on NCI-H460, half-maximal inhibition (IC50) was put at 2820 nM. The inhibition was 87% in series [4] and 78% in series [6]. The compound also showed a Fold increase in the series with HCT-116 [9] of 2.

For `Cn1ccc2ccc3c4[nH]c5ccccc5c4c4c(c3c21)C(=O)NC4=O`, the Fold increase with HCT-116 [17] was found to be 2.5; with HCT-116 [18], 1.4. Moreover, the half-maximal inhibitory concentration (IC50) in [1] is 47 nM; in [2] it was above 2000 nM; in [3], 75 nM; in the series with HCT-116 [5], 2110 nM; in series [7], 22 nM; in the series with NCI-H460 it was 1170 nM. Moreover, the inhibition turned out to be 97% in series [4] and 63% in [6].

Take `Cl.Cn1ccc2ccc3c4[nH]c5c(CCN6CCOCC6)cccc5c4c4c(c3c21)C(=O)NC4=O`: the Fold increase with HCT-116 [10] was determined as 2.3; in the series on HCT-116 [9], 1.2.

As for `Cn1ccc2ccc3c4[nH]c5c(CCN6CCCCC6)cccc5c4c4c(c3c21)C(=O)NC4=O`, the IC50 was 62 nM on CaM kinase II; 45 nM in [1]; 9140 nM in [2]; 1060 nM in series [3]; 2120 nM with HCT-116 [5]; 2470 nM in the series with NCI-H460. Also, the inhibition in series [4] came to 78%; in series [6], 69%. Moreover, the results for the Fold increase with HCT-116 [10] and with HCT-116 [9] were 2.1 and 1.8, respectively. The solubility at 168 h in series [11] came out at 8500 µg/mL (≈ 18.9 mM).

As for `COc1cc2ccn(C)c2c2c3c(c4c5ccccc5[nH]c4c12)C(=O)NC3=O`, the IC50 in series [1] was determined as 32 nM; in series [3], 67 nM; with HCT-116 [5] it was 1900 nM; in [7], 18 nM; with NCI-H460 it was 690 nM. The inhibition was 77% in series [4] and 56% in series [6]. The Fold increase in the series on HCT-116 [10] turned out to be 2.1; with HCT-116 [9], 1.8.

Take `COc1ccc2c3c4c(c5c(ccc6ccn(C)c65)c3n(CCCNCCO)c2c1)C(=O)NC4=O`: the IC50 on CaM kinase II came out at 732 nM; in [1] it was 72 nM; in [2], 3150 nM; in series [3] it was 432 nM; in the series with HCT-116 [5] it was 1550 nM; in series [7] it was 28 nM. This compound also registered a 50% inhibitory concentration (IC50) in the series on NCI-H460 of 1280 nM. In addition, the inhibition amounted to 78% in series [4] and 57% in series [6]. Moreover, the Fold increase with HCT-116 [10] is given as 2.7; in the series on HCT-116 [9], 1.8. The solubility at 168 h in series [11] turned out to be 8600 µg/mL (≈ 18.3 mM).

As to `Cn1ccc2ccc3c4[nH]c5c(CCN6CCC(C(N)=O)CC6)cccc5c4c4c(c3c21)C(=O)NC4=O`, the IC50 on CaM kinase II is 25 nM; in [1] it was 51 nM; in series [2], 5890 nM; in series [3] it was 796 nM; in the series on HCT-116 [5] it was 1000 nM; in series [7] it was 5 nM. This compound gave an IC50 in the series on NCI-H460 of 1350 nM. The inhibition in series [4] was found to be 55%; in series [6] it was 52%. Besides, the Fold increase in the series with HCT-116 [10] is 2.2; in the series on HCT-116 [9], 1.9.

In general, IC50 refers to the concentration at which inhibition is half-maximal. What is called inhibition is the relative decrease from the control value, in per cent. Read a high inhibition as strong suppression. As usually defined, the solubility is the dissolved amount per volume that the medium holds. For orientation: Solubility means the concentration that dissolves in the medium under given conditions. Low readings indicate a poorly soluble substance, high ones a readily soluble substance.
